From patent publication US6872850B2, “Small molecule inhibitors of secretion of proteins encoded by ARE-mRNAs” (Message Pharmaceuticals, priority 2001, dated 2005)

What was measured:
3′ UTR of the TNFα gene = assay: cell-based luciferase reporter assay, 5B cell line (luciferase gene with entire 3′ UTR of the TNFα gene); parameters: species or system mouse; settings: for Luciferase 5B (% of DMSO control): 1 h, then LPS, 5B cell line
Experimental: The candidate compounds were tested in a high-throughput, cell-based luciferase reporter assay. For this assay, a commercially available mouse macrophage Raw 264.7 cell line was stably transfected with a construct containing the CMV promoter operably linked to the luciferase gene which was modified using standard molecular biology techniques to contain the entire 3′ UTR of the TNFα gene. This 3′ UTR is important for the stability and translation of TNFα in cells. To control for effects of candidate compounds that are not specific for TNFα, a control cell line, called “3B,” was generated by stably transfecting the 264.7 cell line with a commercially available construct containing the luciferase gene (without the addition of the heterologous 3′ UTR of the TNFα gene) under the regulation of the CMV promoter.
[…] Then, lipopolysaccharide (LPS) was added to stimulate TNFα secretion. Luciferase activity was measured by determining the luminescence intensity due to the reaction of lucifern, ATP, Mg^2+, and molecular O2 (see, for example, Ausubel et al., supra). The luciferase activity in a cell incubated with a candidate compound was reported as a percentage of the luciferase activity for the corresponding cell incubated with DMSO vehicle only.
After correction for any effect caused by the administration of the DMSO only vehicle control, the effect of a candidate compound on luciferase activity in the 3B control cell line represents the global effect of the compound on any step required for expression or activity of luciferase protein, such as luciferase gene transcription, mRNA processing, mRNA stability, translation, protein stability, or enzymatic activity. […] In this case, the luciferase activity in the 5B cell line treated with the DMSO vehicle control is similar to the luciferase activity in the control 3B cell line treated with the candidate compound. Thus, the response of the 5B cell line (as a percent of the DMSO control) and the ratio of the luciferase activity in the 5B cell line (as a percent of the DMSO control) to the luciferase activity in the control 3B cell line (as a percent of the DMSO control) are similar. In desirable embodiments, the response of the 5B cell line and the 5B/3B ratio differ by less than 50, 40, 30, 20, 10, or 5%.

TNFα = assay: ELISA of TNFα secreted into the media after LPS; assay type: cell-based; settings: 10 μM compound, 1 h, then LPS
Experimental: The ability of candidate compounds to reduce the amount of secreted TNFα was also directly tested using an ELISA assay. […] A standard ELISA analysis was used to measure the amount of TNFα secreted into the media (see, for example, Ausubel et al., supra). The effect of a candidate compound on TNFα secretion in this assay is reported in the following tables as a percentage of the amount of TNFα secreted by a control cell that was administered a DMSO vehicle control only.

[1] = 10 μM compound, ratio of 5B to control 3B cell line

SMILES | effect on luciferase activity in the 5B cell line (luciferase assay), in words (3′ UTR of the TNFα gene) | Luciferase 5B (% of DMSO control) (3′ UTR of the TNFα gene; 10 μM compound) | Luciferase 5B/3B (% of DMSO control 5B)/(% of DMSO control 3B) (3′ UTR of the TNFα gene; [1]) | TNFα Secretion (% of DMSO control) (TNFα) | Luciferase 5B/3B (% of DMSO control 5B)/(% of DMSO control 3B) (3′ UTR of the TNFα gene; 10 μM compound (Table 11))
CC(=NNC(=N)N)c1cccc(C(=O)NC(CC2CCCCC2)C(=O)N2CCN(C(=O)C(Cc3ccccc3)NC(=O)c3ccc(C(=NNC(=N)N)c4ccccc4)cc3)CC2)c1 (mixture of isomers) [MES 10181] | inhibited TNFα secretion | 17 % of DMSO control | 49 (% of DMSO control 5B)/(% of DMSO control 3B) | – | –
CC(=NNC(=N)N)c1cccc(C(=O)NC(C(=O)N2CCN(C(=O)C(Cc3ccccc3)NC(=O)c3ccc(C(=NNC(=N)N)c4ccccc4)cc3)CC2)C(C)C)c1 (mixture of isomers) [MES 10183] | inhibited TNFα secretion | 58 % of DMSO control | 57 (% of DMSO control 5B)/(% of DMSO control 3B) | – | –
CCCCC(NC(=O)c1ccc(C(=NNC(=N)N)c2ccccc2)cc1)C(=O)N1CCN(C(=O)C(Cc2ccccc2)NC(=O)c2ccc(C(=NNC(=N)N)c3ccccc3)cc2)CC1 (mixture of isomers) [MES 10184] | – | 22 % of DMSO control | 35 (% of DMSO control 5B)/(% of DMSO control 3B) | – | –
CCCCC(NC(=O)c1cccc(C(C)=NNC(=N)N)c1)C(=O)N1CCN(C(=O)C(Cc2ccccc2)NC(=O)c2ccc(C(=NNC(=N)N)c3ccccc3)cc2)CC1 (mixture of isomers) [MES 10185] | inhibited TNFα secretion | 31 % of DMSO control | 35 (% of DMSO control 5B)/(% of DMSO control 3B) | 37 % of DMSO control | –
CC(C)CC(NC(=O)c1ccc(C(=NNC(=N)N)c2ccccc2)cc1)C(=O)N1CCN(C(=O)C(Cc2cccc3ccccc23)NC(=O)c2ccc(C(=NNC(=N)N)c3ccccc3)cc2)CC1 (mixture of isomers) [MES 10191] | – | 46 % of DMSO control | 86 (% of DMSO control 5B)/(% of DMSO control 3B) | 22 % of DMSO control | –
CC(C)CC(NC(=O)c1ccc(C(=NNC(=N)N)c2ccccc2)cc1)C(=O)N1CCN(C(=O)C(Cc2ccc(Cl)cc2)NC(=O)c2ccc(C(=NNC(=N)N)c3ccccc3)cc2)CC1 (mixture of isomers) [MES 10192] | – | 37 % of DMSO control | 47 (% of DMSO control 5B)/(% of DMSO control 3B) | 17 % of DMSO control | –
CC(C)CC(NC(=O)c1ccc(C(=NNC(=N)N)c2ccccc2)cc1)C(=O)N1CCN(C(=O)C(Cc2ccc(-c3ccccc3)cc2)NC(=O)c2ccc(C(=NNC(=N)N)c3ccccc3)cc2)CC1 (mixture of isomers) [MES 10193] | – | 23 % of DMSO control | 38 (% of DMSO control 5B)/(% of DMSO control 3B) | 20 % of DMSO control | –
CC(C)CC(NC(=O)c1ccc([N+](=O)[O-])cc1)C(=O)N1CCN(C(=O)C(Cc2ccccc2)NC(=O)c2ccc(C(=NNC(=N)N)c3ccccc3)cc2)CC1 (mixture of isomers) [MES 10224] | – | 36 % of DMSO control | 37 (% of DMSO control 5B)/(% of D | – | –
CC(C)CC(NC(=O)c1ccc(I)cc1)C(=O)N1CCN(C(=O)C(Cc2ccccc2)NC(=O)c2ccc(C(=NNC(=N)N)c3ccccc3)cc2)CC1 (mixture of isomers) [MES 10226] | greatest inhibitor activity | 23 % of DMSO control | 26 (% of DMSO control 5B)/(% of D | – | –
CC(C)CC(NC(=O)c1ccc(Cl)cc1)C(=O)N1CCN(C(=O)C(Cc2ccccc2)NC(=O)c2ccc(C(=NNC(=N)N)c3ccccc3)cc2)CC1 (mixture of isomers) [MES 10227] | – | 34 % of DMSO control | 39 (% of DMSO control 5B)/(% of D | – | –
CC(C)CC(NC(=O)c1ccc2ccccc2c1)C(=O)N1CCN(C(=O)C(Cc2ccccc2)NC(=O)c2ccc(C(=NNC(=N)N)c3ccccc3)cc2)CC1 (mixture of isomers) [MES 10228] | – | 38 % of DMSO control | 40 (% of DMSO control 5B)/(% of D | – | –
CC(C)CC(NC(=O)c1ccc(C(=NNC(=N)N)c2ccccc2)cc1)C(=O)N1CCN(C(=O)C(Cc2ccccc2)NC(=O)CCc2cccnc2)CC1 (mixture of isomers) [MES 10234] | – | 60 % of DMSO control | 58 (% of DMSO control 5B)/(% of D | – | –
CC(C)CC(NC(=O)c1ccc(C(=NNC(=N)N)c2ccccc2)cc1)C(=O)N1CCN(C(=O)C(Cc2ccccc2)NC(=O)c2cnccn2)CC1 (mixture of isomers) [MES 10235] | – | 70 % of DMSO control | 75 (% of DMSO control 5B)/(% of D | – | –
CC(=NNC(=N)N)c1cccc(C(=O)NC(CC(C)C)C(=O)N2CCN(C(=O)C(Cc3ccc([N+](=O)[O-])cc3)NC(=O)c3ccc(C(=NNC(=N)N)c4ccccc4)cc3)CC2)c1 (mixture of isomers) [MES 10257] | – | 34 % of DMSO control | 60 (% of DMSO control 5B)/(% of DMSO control 3B) | – | –
CC(=NN=C(N)N)c1cccc(C(=O)NC(CC(C)C)C(=O)N2CCN(C(=O)C(CC(C)C)NC(=O)c3ccc(C(=NN=C(N)N)c4ccccc4)cc3)CC2)c1 (mixture of isomers) [MES 11408] | decrease TNFα secretion | 59 % of DMSO control | 54 (% of DMSO control 5B)/(% of D | – | –
CC(=NN=C(N)N)c1cccc(C(=O)NC(CC(C)C)C(=O)NCCCNC(=O)C(C)NC(=O)c2ccc(C(=NN=C(N)N)c3ccccc3)cc2)c1 (mixture of isomers) [MES 11411] | decrease TNFα secretion | 65 % of DMSO control | 71 (% of DMSO control 5B)/(% of D | – | –
CC(=NNC(=N)N)c1cccc(C(=O)NC(C)C(=O)N2CCN(C(=O)C(Cc3ccccc3)NC(=O)c3ccc(C(=NNC(=N)N)c4ccccc4)cc3)CC2)c1 (mixture of isomers) [MES 11465] | decrease TNFα secretion | 72 % of DMSO control | 71 (% of DMSO control 5B)/(% of D | – | –
C/C(=N\N=C(N)N)c1cccc(C(=O)NCCNC(=O)[C@H](Cc2ccccc2)NC(=O)c2ccc(C(=O)c3ccccc3)cc2)c1.O=C(O)C(F)(F)F [MES 10093, (4-E)-Guanylhydrazone of 1-[(S)-N-(4-benzoylbenzoyl)-2-amino-3-phenylpropanoyl]-4-(3-acetylbenzoyl)-1,4-diazabutane trifluoroacetate] | – | – | – | – | 47 (% of DMSO control 5B)/(% of D
O=C(N[C@@H](Cc1ccccc1)C(=O)N1CCN(C(=O)CCCC(=O)N2CCN(c3ccccc3)CC2)CC1)c1ccc(C(=O)c2ccccc2)cc1 [MES 10246] | – | 46 % of DMSO control | 74 (% of DMSO control 5B)/(% of D | – | –
CN1CCN(C(=O)CCC(=O)N2CCN(C(=O)[C@H](Cc3ccccc3)NC(=O)c3ccc(C(=O)c4ccccc4)cc3)CC2)CC1 [MES 10301] | – | 76 % of DMSO control | 105 (% of DMSO control 5B)/(% of D | – | –
CC(NC(=O)c1ccc(C(=O)c2ccccc2)cc1)C(=O)N1CCN(C(=O)CCC(=O)N2CCN(c3ccccc3)CC2)CC1 (stereo not drawn) [MES 10304] | – | 49 % of DMSO control | 64 (% of DMSO control 5B)/(% of D | – | –
CC(=O)N[C@@H](Cc1ccccc1)C(=O)N1CCN(C(=O)[C@H](CC(C)C)NC(=O)c2cccc(/C(C)=N/NC(=N)N)c2)CC1 [MES 10306] | – | 85 % of DMSO control | 125 (% of DMSO control 5B)/(% of D | – | –
